Reference: publication PMC8398714, “Synthesis and Evaluation of Biological Activities of Bis(spiropyrazolone)cyclopropanes: A Potential Application against Leishmaniasis” (Molecules, 2021)
Where two headings read alike, the source gives them in different places.

Assays:
[1] = tested on: promastigotes of Leishmania mexicana; experiment: Leishmanicidal activity, MTT assay on promastigotes; assay type: cell-based; details: for SI (Selectivity Index) = Citotoxic activity/Leishmanicidal activity: CC50 RAW / IC50 L. mexicana; for IC50: Leishmania mexicana
Description: The leishmanicidal activity of all compounds was evaluated by measuring promastigotes’ mitochondrial activity using MTT colorimetric assay as described previously. In this study, promastigotes from Leishmania mexicana were used. The species were confirmed by amplifying and sequencing cytochrome b gene. Promastigotes were cultured at 25 °C in Schneider’s Drosophila Medium (Gibco, Invitrogen, Carlsbad, CA, USA) supplemented with 10% fetal bovine serum (Eurobio, Les Ulis, France). The medium was renewed every third day. Parasite density was determined by counting the cells using a Neubauer chamber.
Into each well of a 96-well plate were dispensed 1 × 10^6 parasites/well. A stock solution of the compounds was prepared in DMSO (Sigma Aldrich, Saint Louis, MO, USA), and serial dilutions were added to the parasite suspension, leading to concentrations ranging from 100 to 0.001 µM, keeping the solvent concentration at 0.5%. The final volume was 200 µL for each well and triplicate conditions were carried out. Amphotericin B (Gibco) treatment (1 µM) untreated parasites and DMSO 0.5% were used as positive and negative controls, respectively. After exposure to the compounds for 48 h in culture medium, 20 µL of a solution of 5 mg/mL MTT dissolved in PBS were added to each well. The plate was incubated at 25 °C for 2 h in darkness. The plate was then centrifuged at 4400 rpm for 10 min and the culture medium was then aspirated; 50 µL of DMSO were added into each well to solubilize the formazan crystals and the plate was shaken for 5 min and then it was measured by recording changes in absorbance at 570 nm using a microplate reader Cytation 5 (BioTek) spectrophotometer. A reference wavelength of 630 nm was used as background subtraction. Optical densities were analyzed because the quantity of formazan is directly proportional to the number of viable parasites. Data were analyzed with the statistical software GraphPad Prism 7.02 (GraphPad Software, Corp.).

[2] = Cytotoxicity, MTT assay on RAW 264.7 macrophages; assay type: cell-based; details: mouse
Description: Raw 264.7 (ATCC® TIB-71™) was maintained in Dulbecco’s Modified Eagle Medium (DMEM) (Gibco, Invitrogen, Gibco, Carlsbad, CA, USA) supplemented with 10% fetal bovine serum (FBS) (Eurobio, Les Ulis, France) and 100 IU/mL penicillin + 100 μg/mL streptomycin (Gibco), at 37 °C in a 5% CO2 atmosphere. The medium was renewed once a week. The viability was determined using MTT (Thiazolyl Blue Tetrazolium Bromide) dye assay as described before for leishmanicidal activity assessment, with some variations. Here, 5 × 10^4 cells/well in a final volume of 100 µL were deposited into a 96-well plate, in triplicate. Saponin (2.4 mg/mL) and untreated cells were used as positive control and negative control, respectively. A stock solution was prepared in DMSO and immediately diluted in media to obtain different serial concentrations (100–0.01 µM). After 48 h exposure to the compounds, 10 µL/well of MTT (5 mg/mL MTT in PBS) were added, and the plate was incubated at 37 °C for 2 h in the dark. Cells were pelleted by centrifugation at 4400 rpm for 10 min and the media was removed. Then, 100 µL/well of DMSO were added and the absorbance at 570 nm was recorded; a reference wavelength of 630 nm was used for background subtraction.

MCF-7 = experiment: MTS cell viability assay on MCF-7 cells; assay type: cell-based; details: Homo sapiens, Dox 1 µM, mean ± SEM, NA = no activity, read-out: Percentage (%) of inhibition, MCF-7
Description: (§1) Five tumor human cancer cell lines—cerebral astrocytoma (D-384), grade IV prostatic adenocarcinoma (PC-3), mammary adenocarcinoma (MCF-7), human colon carcinoma (RKO) and lung carcinoma (A-549)—along with one immortalized hamster cell line (CHO K-1) were used. The cells PC-3, MCF-7 and RKO were cultured in RPMI-1640, D-384 on DMEM and CHO K-1 on HAM F-12 medium supplemented with 10% fetal bovine serum (FBS, Invitrogen, Karlsruhe, Germany), 1% antibiotic-antimitotic solution (100 units/mL penicillin G, 100 µg/mL streptomycin, and 0.25 µg/mL amphotericin B, Gibco, Grand Island, NY, USA), and 1% L-glutamine (2 mM, Gibco). The cells were incubated at 37 °C in a 5% CO2 atmosphere. The viable cells were counted using the trypan blue exclusion method in a hemocytometer.
(§2) The MTS (5-[3-(carboxymethoxy)phenyl]-3-(4,5-dimethyl-2-thiazolyl)-2-(4-sulfo- phenyl)-2H-tetrazolium inner salt) cell viability assay was used to assess the inhibitory effects of the extracts on the survival of human cancer cell lines. A total of 3–5 × 10^3 cells/well were seeded into 96-well plates and were allowed to adhere for 24 h. […] Each concentration/assay was performed three times. Dimethyl sulfoxide (DMSO) was used as a negative control at a final concentration of 0.1% v/v, and 1 µM Doxorubicin was used as a positive control. The cells were incubated with the treatments for 48 h, after which 20 µL MTS (5 mg/mL, Aqueous One Solution Reagent, Gibco) was added and further incubated for 4 h at 37 °C. The absorbance was measured at 570 nm. The data obtained with cells treated with DMSO were defined to represent 100% viability.

RKO = experiment: MTS cell viability assay on RKO cells; assay type: cell-based; details: Homo sapiens, 48 h
Description: as §1, §2

CHO-K1 = experiment: MTS cell viability assay on immortalized CHO-K1 cells; assay type: cell-based, hamster; details: 48 h, Dox 1 µM, mean ± SEM, NA = no activity, read-out: Percentage (%) of inhibition, CHO-K1
Description: as §1, §2

HeLa = experiment: MTS cell viability assay on HeLa cells; assay type: cell-based; details: Homo sapiens, 48 h, Dox 1 µM, mean ± SEM, NA = no activity, read-out: Percentage (%) of inhibition, HeLa
PC-3 = experiment: MTS cell viability assay on PC-3 cells; assay type: cell-based; details: Homo sapiens, 48 h
Description: as §1, §2

[3] = DPPH radical scavenging assay; details: 30 min, 515 nm
Description: The stock solution of the compounds was prepared by dissolving 4 in dimethyl sulfoxide (DMSO) to a concentration of 4 mg/mL. The solution was diluted with methanol until a concentration of 400 µg/mL was obtained and then used immediately.
The experimental procedure was adapted from the literature. Briefly, 100 µL of a 0.2 mM methanol solution of DPPH (2, 2-diphenyl-1-picrylhydrazyl) radical were added to 100 µL of methanolic solutions of 4 prepared as serial two-fold dilutions from the stock solution in 96-well microfilter plates. Standards and edaravone were also prepared in the same concentrations. The mixture was incubated in dark at room temperature for 30 min and the absorbance was read at 515 nm on a Cytation 5 (BioTek) spectrophotometer.
The % DPPH scavenging activity was then calculated by using the following formula:(1) % DPPH scavenging = 100 × [(Asample+DPPH−Asample blank)/(ADPPH−Asolvent)]
The antioxidant activity of the compound was expressed as IC50, which is defined as the concentration that could scavenge 50% of the DPPH free radical. The IC50 values were calculated in GraphPad Prism 7.02 (GraphPad Software, Corp.) The results are given as a mean ± standard deviation (SD) of experiments done in triplicate.

A-549 = experiment: MTS cell viability assay on A-549 cells; assay type: cell-based; details: Homo sapiens, A549; 100 µM, 48 h; Dox 1 µM; mean ± SEM; NA = no activity; read-out: Percentage (%) of inhibition, A-549
Description: as §1, §2

[4] = tested on: Leishmania mexicana cells; experiment: Comet assay of Leishmania mexicana cells; assay type: cell-based; parameters: Comet tail length, mean (vary) / Comet tail length, median (Q50): unit not given here; details: L. mexicana, 24 h at MIC; MMS 0.011%; Kruskal-Wallis $means
Description: We quantified DNA breaks by a comet assay to determine if these compounds are genotoxic. Here, L. mexicana cells were exposed for 24 h to MIC concentrations previously determined (see Materials and Methods Section) for each compound. Figure 1 represents the measurements obtained for tail length. All compounds generated DNA breaks expect 4s. […] Samples with DMSO and MMS (0.011%) were included as controls. Some representative pictures are shown at Figure S4. The effect of 4p could not be determined because the cells appear to be very damaged. The data was subjected via a Kruskal–Wallis one-way ANOVA (Statistical Analyses S2). […] These observations support a mechanism of action through the generation of DNA damage.
For leishmania, a method previously described for yeast was adapted. Briefly, after incubating the cells in presence of the compounds for 24 h, cells were collected and washed with buffer S (1 M sorbitol, 25 mM KH2PO4 in ultrapure water and adjust to pH 6.5 with NaOH). The pellet was resuspended in 400 µL of 1.5% LMA and 40 µL was spread (second layer) onto previously agarose-coated slides (first layer).
Slides were immersed in cold lysis buffer (30 mM NaOH, 1 M NaCl, 0.05 % (w/v) lauroylsarcosine, 50 mM EDTA, and 10 mM Tris–HCl, pH 10) for 25 min and then in cold electrophoresis alkaline buffer (30 mM NaOH, 10 mM EDTA, and 10 mM Tris–HCl, pH 10). They were then subjected to electrophoresis at 26V and 300 mA. Slides were immersed in neutralization buffer (10 mM Tris–HCl, pH 7.4; prepared in advance and stored at 4 °C) for 10 min at room temperature. The cells were then treated with proteinase K (20 min, 37 °C in humid chamber), followed by a new neutralization step. To dehydrate the slides, they were immersed in EtOH 90% and EtOH absolute for 10 min each. Finally, the slides were stained with Sybr Gold 1X.
The DNA migration was analyzed using a LEICA microscope with fluorescence (40×) by scoring 100 cells per slide in duplicate. The tail moment parameter was then analyzed by the Comet Score software.

[5] = MTS cell viability assay on A-549 cells; assay type: cell-based; details: Homo sapiens; 48 h, 15-150 µM, mean ± SEM of triplicates
Description: as §1, §2

[6] = read-out: IC50 original values, x.1 (Mean)
[7] = L. mexicana promastigotes, 48 h, MTT, read-out: Leishmanicidal Activity IC50
[8] = RAW cells, 48 h, MTT, read-out: Cytotoxicity CC50
[9] = 100 µM, Dox 1 µM, mean ± SEM, NA = no activity, read-out: Percentage (%) of inhibition, RKO
[10] = 100 µM, Dox 1 µM, mean ± SEM, NA = no activity, read-out: Percentage (%) of inhibition, PC-3
[11] = 15-150 µM, mean ± SEM of triplicates

C[C@@H]1[C@H](O)[C@@H](C)/C=C/C=C/C=C/C=C/C=C/C=C/C=C/[C@H](O[C@@H]2O[C@H](C)[C@@H](O)[C@H](N)[C@@H]2O)C[C@@H]2O[C@](O)(C[C@@H](O)C[C@@H](O)[C@H](O)CC[C@@H](O)C[C@@H](O)CC(=O)O[C@H]1C)C[C@H](O)[C@H]2C(=O)O [Ampho B, Amphotericin B, reference compound]
SI (Selectivity Index) = Citotoxic activity/Leishmanicidal activity [1]: >31.8
IC50 [1, 6]: 0.172 µM
IC50 [1, 7]: 0.17 ± 0.07 µM
CC50 at 48 h [2, 8]: > 5.4 µM

CC1=NN(c2ccccc2)C(=O)C1=Cc1ccc(N(C)C)cc1
melting point: 190.7 to 193.2 °C

CC1=NN(c2ccccc2)C(=O)[C@@]12C(c1ccc(F)cc1)[C@@]21C(=O)N(c2ccccc2)N=C1C (relative stereo) [4p, (5R*,6R*)-11-(4-Fluorophenyl)-4,10-dimethyl-2,8-diphenyl-2,3,8,9-tetraazadispiro[4.0.4.1]undeca-3,9-diene-1,7-dione]
inhibition at 100 µM (MCF-7; MCF7, 48 h): 13.6 ± 2.55%
inhibition at 100 µM (RKO; [9]): 18.6 ± 1.37%
inhibition at 100 µM (CHO-K1): 1.95 ± 1.42%
inhibition at 100 µM (HeLa): 5.98 ± 2.19%
inhibition at 100 µM (PC-3; [10]): 5.25 ± 2.6%
melting point: 128.9 to 129.9 °C
IC50 [3]: > 300 µM
SI (Selectivity Index) = Citotoxic activity/Leishmanicidal activity [1]: 6.1
IC50 [1, 6]: 0.575 µM
IC50 [1, 7]: 0.57 ± 0.23 µM
inhibition at 100 µM (A-549): 9.08 ± 1.14%
CC50 at 48 h [2, 8]: 3.5 ± 0.9 µM
CC50 at 48 h ([2]; Statistical Analyses S1, unrounded mean of CC50 in RAW cells, unit inferred, read-out: CC50 original values, x.1 (Mean)): 3.55 µM

COS(C)(=O)=O [MMS, methyl methanesulfonate, reference compound]
Comet tail length, mean (vary) [4]: 67050000
Comet tail length, median (Q50) [4]: 65000000

O=C1O[C@H]([C@@H](O)CO)C(O)=C1O [Ascorbic acid, ascorbic acid, reference compound]
IC50 [3]: 14 µM

COc1cccc2c1C(=O)c1c(O)c3c(c(O)c1C2=O)C[C@@](O)(C(=O)CO)C[C@@H]3O[C@H]1C[C@H](N)[C@H](O)[C@H](C)O1 [Dox, Doxorubicin, reference compound]
inhibition at 1 µM (MCF-7; MCF7, 100 µM, 48 h): 46.2 ± 7.77%
inhibition at 1 µM (RKO; [9]): 85.6 ± 1.06%
IC50 (RKO; [11]): 0.51 ± 0.01 µM
inhibition at 1 µM (CHO-K1; 100 µM): 2.62 ± 1.42%
inhibition at 1 µM (HeLa; 100 µM): 9.18 ± 9.55%
inhibition at 1 µM (PC-3; [10]): 88 ± 1.65%
IC50 (PC-3; [11]): 0.65 ± 0.08 µM
inhibition at 1 µM (A-549): 9.16 ± 2.16%
IC50 [5]: 1.23 ± 0.1 µM

Cc1nn(-c2ccccc2)c(O)c1C(c1cc(O)ccc1[N+](=O)[O-])c1c(C)nn(-c2ccccc2)c1O
melting point: 205 to 207 °C (dec.)

CC1=NN(c2ccccc2)C(=O)C12CC21C(=O)N(c2ccccc2)N=C1C (stereo not drawn)
melting point: 165.8 to 167.9 °C

COC1C=C(C(c2c(C)nn(-c3ccccc3)c2O)c2c(C)nn(-c3ccccc3)c2O)C=CC1(O)OC (stereo not drawn)
melting point: 208 to 210 °C
